In patent publication US10639251B2, “Method for inhibiting or masking fishy odours” (Symrise AG, priority 2015, dated 2020):
Where “and” joins values, the source holds several entries; their conditions need not be identical. Equal entries are not always repeated. Entries after “also recorded” stand apart in the source; their conditions may differ. Where two headings read alike, the source gives them in different places. Each block holds one compound with its values, some of them ahead of it.

Tests used:
[1] = target: T1, hTAAR5 (Homo sapiens, UniProt O14804); assay: Cre-luciferase reporter gene assay, hTAAR5-mediated responses to TMA in transfected HANA3A cells; format: cell-based; conditions: for reduction / inhibition of hTAAR5-mediated TMA responses: TMA 300 μM, putative antagonist 100 μM; for IC50: read-out: half maximal inhibitory concentration (IC50)
T1 construct: expressed in transfected cells; host or cells: HANA3A cells
T1 sequence (O14804 1-337): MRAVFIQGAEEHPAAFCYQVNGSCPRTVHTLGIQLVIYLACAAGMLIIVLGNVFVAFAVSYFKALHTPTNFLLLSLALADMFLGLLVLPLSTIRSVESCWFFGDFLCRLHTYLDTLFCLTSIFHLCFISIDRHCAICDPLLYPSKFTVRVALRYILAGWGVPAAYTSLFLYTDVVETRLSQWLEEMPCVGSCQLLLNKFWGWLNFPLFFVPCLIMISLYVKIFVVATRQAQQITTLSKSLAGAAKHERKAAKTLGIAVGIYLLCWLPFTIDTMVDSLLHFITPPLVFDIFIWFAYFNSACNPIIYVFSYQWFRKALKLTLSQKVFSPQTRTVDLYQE
Experimental: (§1) In order to identify suitable antagonist for TMA the protocol of Zhuang and Matsunami for measuring receptor activity with the Dual-Glo Luciferase Assay System (Promega) was adapted [see Nat. Protoc. 3(9), p. 1402-1413 (2008)]. HANA3A cells were maintained under standard conditions in DMEM supplemented with 10% FBS and 100 units/ml penicillin and streptomycin at 37° C. Cells (approximately 15,000 cells/well) were plated on poly-D-lysine-coated 96-well plates (NUNC) and transfected after 24 h with the FuGENE® HD (Promega) transfection reagent according to the manufacturer's protocol. In a 96-well plate, we placed 18 μl transfection reagent, 1-5 μg receptor plasmid, 2 μg pGL4-luciferase reporter, 1 μg pRL-TK-Renilla reporter, 0.5 μg G-protein αolf, 1 μg receptor transport protein (RTP1S) and 1 μg M3 muscarinic acetylcholine receptor (for hOR51E1) to ensure cell surface expression. Cells were stimulated 24 h after transfection for 4 h at 37° C. with test substances diluted in CD 293 medium (1×) (Life Technologies) with 2 mM L-glutamine (Life Technologies) added. After stimulation with test substances, recombinant hTAAR5 activation elevated cAMP and the subsequent expression of the cAMP-dependent reporter gene construct Cre-luciferase. Expression rates of Cre-luciferase were monitored by luminescent enzymatic reactivity. Thus, luminescence signals correlate with receptor activation. The Renilla luciferase reporter driven by a constitutively active TK-promoter (pRL-TK-Renilla) served as an internal control to determine cell viability and transfection efficiency. Firefly luciferase activity to the Renilla luciferase signal was normalized for all wells. The ratios of antagonistic stimulation were normalized to the ratios of agonist stimulation. Furthermore, mock-transfected cells were stimulated to exclude unspecific responses to the tested substances.
To identify blocker substances for hTAAR5-mediated responses to TMA, the Cre-luciferase reporter gene assay was used. Human TAAR5-transfected HANA3A cells were stimulated with a mix of the agonist TMA (300 μM) and 100 μM of a potential blocker substance (FIG. 1).
For more detailed information concerning the type of antagonism (competitive vs. non-competitive) in the following experiments, the pharmacological profile of Timberol® was characterized. To test the concentration dependency of the Timberol® block, a concentration-inhibition curve (FIG. 2a) was measured. The blocking effect was increased with increasing concentrations of Timberol® and decreased with increasing concentrations of the agonist TMA. The latter was reflected by a significant concentration-inhibition curve shift.

[2] = test system: panelists; assay: Olfactory detection threshold of TMA, 3-alternative forced-choice, ISO 13301; format: in vivo, human; conditions: for influence of additive on TMA detection threshold / perception: 1% Timberol or 0.1% Mugetanol (isointense); for olfactory detection threshold of TMA: buffered aqueous solution pH 9
Experimental: In addition, olfactory detection thresholds were assessed in aqueous solutions using a best estimate threshold approach as described in ISO 13301. In brief, samples containing different concentrations of analyte were presented in ascending order in a 3-alternative forced-choice design. Each concentration set consisted of three samples with one deviating sample containing a defined amount of trimethylamine. Samples were presented in amber vials (30 ml) coded with three digits and filled with 10 ml of solution, and panelists were required to designate the sample that differed from the others.
Thresholds of TMA were measured in buffered aqueous solution i) without additive ii) with 1% (m/m) Timberol® and iii) with 0.1% Mugetanol (isointense to 1% Timberol®). These experiments were performed separately on different days with the same panelists. In the case of testing in the presence of fragrance components (Timberol® or Mugetanol), all three samples of a given concentration set contained the same amount of fragrance components and differed only in the presence/absence of TMA. In each session, a total of 10 concentration sets ranging from […] to 1.00×10^−5% (m/m) TMA were evaluated. The concentration doubled in each step.
The aqueous solutions were buffered with TRIS (50 mM), and the pH was adjusted to 9 to have approximately 13% of the TMA in a deprotonated and thus volatile form. Furthermore, an odorless emulsifier was added to a final concentration of 3% (m/m) to dissolve Timberol®.
In a second step, the influence of Timberol® on the perception of TMA was investigated using a psychophysical approach. Therefore the detection thresholds of TMA alone and in the presence of suprathreshold concentrations of Timberol® were tested. Threshold measurements were performed in a 3-alternative forced-choice design according to ISO 13301. A total of 10 concentrations (binary dilution steps) ranging from […] to 1.00×10^−5% (m/m) TMA were examined.

[3] = target: T2, murine TAAR5 (Mus musculus, UniProt Q5QD14); assay: Cre-luciferase assay, murine TAAR5 responses to TMA; format: cell-based; conditions: Timberol 100 μM
T2 construct: expressed in transfected cells; host or cells: HANA3A cells
T2 sequence (Q5QD14 1-337): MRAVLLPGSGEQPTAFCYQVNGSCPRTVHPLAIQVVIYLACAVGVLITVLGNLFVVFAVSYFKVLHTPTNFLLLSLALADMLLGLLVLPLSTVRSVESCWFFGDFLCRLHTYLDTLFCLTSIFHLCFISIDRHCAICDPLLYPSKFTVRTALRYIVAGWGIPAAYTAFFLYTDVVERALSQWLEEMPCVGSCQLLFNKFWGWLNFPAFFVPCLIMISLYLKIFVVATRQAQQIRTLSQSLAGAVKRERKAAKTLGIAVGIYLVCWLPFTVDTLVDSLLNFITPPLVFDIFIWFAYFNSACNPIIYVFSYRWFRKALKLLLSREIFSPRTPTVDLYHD

[4] = test system: intracellular cAMP; assay: Control experiments: intracellular cAMP level in hTAAR5-transfected HANA3A cells (basal and forskolin-stimulated); format: cell-based, human
Experimental: as §1, with “The Renilla luciferase reporter driven by a constitutively active TK-promoter (pRL-TK-Renilla) served as an internal control to determine cell viability and transfection efficiency. Firefly luciferase activity to the Renilla luciferase signal was normalized for all wells. The ratios of antagonistic stimulation were normalized to the ratios of agonist stimulation. Furthermore, mock-transfected cells were stimulated to exclude unspecific responses to the tested substances.” left out

[5] = test system: MOR42-3; assay: Cre-luciferase assay, MOR42-3-mediated responses to azelaic acid; format: cell-based, murine; conditions: Timberol 30 μM; agonist below and above EC50
Experimental: (§2) In order to identify suitable antagonist for TMA the protocol of Zhuang and Matsunami for measuring receptor activity with the Dual-Glo Luciferase Assay System (Promega) was adapted [see Nat. Protoc. 3(9), p. 1402-1413 (2008)]. HANA3A cells were maintained under standard conditions in DMEM supplemented with 10% FBS and 100 units/ml penicillin and streptomycin at 37° C. Cells (approximately 15,000 cells/well) were plated on poly-D-lysine-coated 96-well plates (NUNC) and transfected after 24 h with the FuGENE® HD (Promega) transfection reagent according to the manufacturer's protocol. In a 96-well plate, we placed 18 μl transfection reagent, 1-5 μg receptor plasmid, 2 μg pGL4-luciferase reporter, 1 μg pRL-TK-Renilla reporter, 0.5 μg G-protein αolf, 1 μg receptor transport protein (RTP1S) and 1 μg M3 muscarinic acetylcholine receptor (for hOR51E1) to ensure cell surface expression. […] Expression rates of Cre-luciferase were monitored by luminescent enzymatic reactivity. Thus, luminescence signals correlate with receptor activation. […]
(§3) Another experiment was directed to figure out whether the Timberol® block is exclusively mediated by hTAAR5. […] Then the impact of Timberol® on MOR42-3- and hOR51E1-mediated responses to the respective agonists was tested with concentrations below and above the calculated EC50 values. […]

[6] = target: T3, hOR51E1 (Homo sapiens, UniProt Q8TCB6); assay: Cre-luciferase assay, hOR51E1-mediated responses to nonanoic acid; format: cell-based; set-up: expressed in transfected cells; host or cells: HANA3A cells; conditions: Timberol 30 μM; agonist below and above EC50
T3 sequence (Q8TCB6 1-318): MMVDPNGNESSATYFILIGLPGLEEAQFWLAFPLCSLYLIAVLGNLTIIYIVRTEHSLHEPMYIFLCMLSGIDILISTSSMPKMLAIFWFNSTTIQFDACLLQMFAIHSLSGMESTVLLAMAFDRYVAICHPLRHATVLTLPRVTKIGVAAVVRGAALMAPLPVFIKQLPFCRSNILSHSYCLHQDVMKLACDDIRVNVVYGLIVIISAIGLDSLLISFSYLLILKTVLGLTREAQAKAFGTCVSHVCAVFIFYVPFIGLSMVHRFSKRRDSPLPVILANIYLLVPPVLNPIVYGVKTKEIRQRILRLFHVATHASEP
Experimental: as §2, §3

[7] = target: T4, MOR42-3 (Mus musculus, UniProt E9PX47); assay: Cre-luciferase reporter gene assay, concentration-response curve of azelaic acid on MOR42-3 (Dual-Glo Luciferase, transfected HANA3A cells); format: cell-based; conditions: agonist alone; murine olfactory receptor MOR42-3 recombinantly expressed in HANA3A cells with RTP1S, G-protein αolf, pGL4-luciferase and pRL-TK-Renilla reporters; 4 h at 37° C.; Hill fit; n=3 in duplicate; FIG. 4A left
T4 construct: CRE-luciferase readout normalized to Renilla
T4 sequence (E9PX47 1-334): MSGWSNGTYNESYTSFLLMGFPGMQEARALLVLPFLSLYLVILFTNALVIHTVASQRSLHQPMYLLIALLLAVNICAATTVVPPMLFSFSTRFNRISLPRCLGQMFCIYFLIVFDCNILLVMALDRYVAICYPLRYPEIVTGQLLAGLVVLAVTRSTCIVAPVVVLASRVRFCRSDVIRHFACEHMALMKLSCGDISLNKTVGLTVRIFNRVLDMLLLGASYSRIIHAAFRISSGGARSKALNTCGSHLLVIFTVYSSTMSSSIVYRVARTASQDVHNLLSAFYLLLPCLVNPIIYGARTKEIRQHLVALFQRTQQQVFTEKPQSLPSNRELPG
Experimental: as §2, with “protocol.” for “protocol. In a 96-well plate, we placed 18 μl transfection reagent, 1-5 μg receptor plasmid, 2 μg pGL4-luciferase reporter, 1 μg pRL-TK-Renilla reporter, 0.5 μg G-protein αolf, 1 μg receptor transport protein (RTP1S) and 1 μg M3 muscarinic acetylcholine receptor (for hOR51E1) to ensure cell surface expression.”
For statistical analysis of Cre-luciferase assay data, two-tailed unpaired Student's t-test. […] Sensory data was analyzed using non-parametric statistical tests. The overall difference between the group thresholds was determined by a Kruskal-Wallis test, followed by a Dunn post-hoc test for the respective pairwise comparisons.
as §3

[8] = test system: humans; conditions: in vivo; cited from earlier work
[9] = target: T1, hTAAR5; conditions: agonist; cited from earlier work

SMILES: CC(C)C1CCC(C(C)O)CC1 (stereo not drawn) [Mugetanol, reference compound]
reduction / inhibition of hTAAR5-mediated TMA responses [1]: does not inhibit | influence of additive on TMA detection threshold / perception [2]: does not influence significantly

SMILES: CCCC(O)CCC1C(C)CCCC1(C)C (stereo not drawn) [Timberol®, Norlimbanol]
blocking effect on murine TAAR5 ([3]; 1 μM TMA): 34%±2% | inhibition of mTAAR5-mediated responses to TMA [3]: able to block; also recorded: inhibits | basal cAMP production ([4]; Timberol (100 μM) alone vs unstimulated controls): No significant reduction; also recorded: did not affect | cAMP levels after forskolin ([4]; Timberol (100 μM) mixed with 10 μM forskolin vs forskolin alone): no significant difference; also recorded: did not affect | blocking effect on MOR42-3-mediated responses to azelaic acid [5]: no any significant impact; also recorded: No significant blocking effects | block of average hTAAR5 responses ([1]; 30 μM Timberol): at least 50% | block of hTAAR5 response ([1]; 30 μM Timberol, 30 μM TMA): ~78% | block of hTAAR5 response ([1]; 30 μM Timberol, 100 μM TMA): ~56% | blocking effect ([1]; 100 μM Timberol, 30 μM TMA): ~96% and 96%±1.7% | blocking effect ([1]; 100 μM Timberol, 100 μM TMA): 86%±3.6% | inhibition of hTAAR5 responses to TMA ([1]; 100 μM Timberol, 300 μM TMA): 72%±6% | IC50 ([1]; TMA 30 μM): 16.6 µM | IC50 ([1]; TMA 100 μM): 27.8 µM | reduction / inhibition of hTAAR5-mediated TMA responses [1]: nearly completely block | blocking effect on hOR51E1-mediated responses to nonanoic acid [6]: no any significant impact; also recorded: No significant blocking effects | influence of additive on TMA detection threshold / perception [2]: abolished the ability to perceive TMA around perithreshold concentrations; also recorded: shifted to a significantly higher concentration | subjects less sensitive to TMA in the presence of Timberol ([2]; of the 27 tested subjects): 23

EC50 [7]: 2.67 ± 0.47 µM
SMILES: O=C(O)CCCCCCCC(=O)O [Azelaic acid, azelaic acid]

SMILES: CN(C)C [TMA, trimethylamine, reference compound]
detection threshold in humans [8]: 0.00047 ppm | activation of hTAAR5 [9]: specifically activated | olfactory detection threshold of TMA ([2]; TMA alone): 2.0×10^−7 % (m/m) | olfactory detection threshold of TMA ([2]; in the presence of Timberol (1% m/m)): 1.0×10^−6 % (m/m)
